We go through 13 compounds from PubChem BioAssay (NCI).

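These data come from cells grown in 96-well plates and exposed to compound for 48 hours at five concentrations. At the TGI there is no net growth.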 A value given as a limit tells only on which side of the number the result lay.

Some test systems named below: MALME-3M melanoma; HOP-62 NSCLC; DU-145 prostate; M14 melanoma; SF-295 CNS; MDA-MB-231 breast; EKVX NSCLC; SK-OV-3 ovarian; TK-10 renal; SF-268 CNS; CCRF-CEM leukemia; SR leukemia; COLO 205 colon; HCT-15 colon; ACHN renal; MCF7 breast; HL-60(TB) leukemia; A498 renal; BT-549 breast.
Holding throughout (assay): NCI tumour cell line growth inhibition, 48 h

Take `CC(C)CC1[C@@H](OCc2ccccc2)COS(=O)N1Cc1ccccc1` (stereo partly specified): the TGI is 72.9 µM in the test with MALME-3M melanoma; above 100 µM in the test with HOP-62 NSCLC; above 100 µM in the test on DU-145 prostate; above 100 µM with M14 melanoma; above 100 µM with SF-295 CNS; above 100 µM in the test with MDA-MB-231 breast. The TGI is above 100 µM with EKVX NSCLC; above 100 µM with SK-OV-3 ovarian; above 100 µM in the test with TK-10 renal; above 100 µM in the test with SF-268 CNS; above 100 µM in the test on CCRF-CEM leukemia; 73.1 µM in the test on SR leukemia. In addition, the TGI is above 100 µM in the test with COLO 205 colon, above 100 µM in the test with HCT-15 colon, 96.2 µM in the test on ACHN renal and above 100 µM in the test on MCF7 breast.
Take `CN1CCOC1(C)CO` (stereo unspecified): the TGI with MALME-3M melanoma, in the test with HOP-62 NSCLC, in the test with HL-60(TB) leukemia, in the test with M14 melanoma, in the test with SF-295 CNS and with MDA-MB-231 breast was above 100 µM throughout. Besides, the TGI with EKVX NSCLC, in the test with SK-OV-3 ovarian, in the test with TK-10 renal, with SF-268 CNS, with CCRF-CEM leukemia and with SR leukemia was above 100 µM throughout. Further, the TGI in the test with COLO 205 colon, with HCT-15 colon, with ACHN renal, with A498 renal, in the test with MCF7 breast and in the test with BT-549 breast was above 100 µM in each case.
On to `CCOC(=O)CC1c2ccc(O)cc2OC(=O)C1c1ccc([N+](=O)[O-])cc1` (stereo unspecified), for which the TGI with MALME-3M melanoma is 70.3 µM; in the test on HOP-62 NSCLC, 68.2 µM; with DU-145 prostate, above 100 µM; in the test on HL-60(TB) leukemia, 60 µM; in the test with M14 melanoma, 43.8 µM; with SF-295 CNS it was above 100 µM. For the same compound, the TGI in the test on MDA-MB-231 breast was 48.6 µM; in the test on EKVX NSCLC, above 100 µM; in the test with SK-OV-3 ovarian, 85.5 µM; with TK-10 renal, 75.3 µM; in the test on SF-268 CNS it was above 100 µM; in the test with CCRF-CEM leukemia it was 62.1 µM. The TGI in the test with SR leukemia was 77.5 µM; in the test on COLO 205 colon, 33 µM; with HCT-15 colon, above 100 µM; in the test on ACHN renal, 71.7 µM; in the test on A498 renal, 89.1 µM; with MCF7 breast, 40.9 µM.
`CC1(C#N)CC(C)(C)C(/C=C2/CC(C)(C)C(/C=C3/OC(=N)CC3(C)C)=N2)=N1` (stereo unspecified): the TGI with MALME-3M melanoma was 20 µM; in the test with HOP-62 NSCLC it was 56.6 µM; in the test on DU-145 prostate, above 100 µM; in the test on HL-60(TB) leukemia, 78.1 µM; in the test on M14 melanoma, 85.8 µM; with SF-295 CNS it was 60.9 µM. Moreover, the TGI in the test on MDA-MB-231 breast was above 100 µM; in the test on EKVX NSCLC, 51.6 µM; in the test on SK-OV-3 ovarian it was 61 µM; in the test with TK-10 renal it was above 100 µM; in the test on SF-268 CNS, above 100 µM; with CCRF-CEM leukemia, above 100 µM. Besides, the TGI in the test with SR leukemia was above 100 µM; in the test on COLO 205 colon, 34.4 µM; in the test on HCT-15 colon it was 44.1 µM; in the test on ACHN renal, 58.9 µM; in the test with A498 renal it was 37.8 µM; in the test on MCF7 breast, 26.3 µM.
Take `CC1=C(Br)C(Br)=C(C)S1=O`: the TGI is 39.3 µM in the test on MALME-3M melanoma; 42.1 µM in the test on HOP-62 NSCLC; 18.1 µM with HL-60(TB) leukemia; 33.8 µM in the test with M14 melanoma; 49.6 µM in the test on SF-295 CNS; 61.5 µM in the test with MDA-MB-231 breast. Further, the TGI is 36.9 µM in the test with EKVX NSCLC; 65.5 µM in the test on SK-OV-3 ovarian; 48.5 µM in the test with TK-10 renal; above 100 µM with SF-268 CNS; 6.66 µM with CCRF-CEM leukemia; 19.3 µM in the test on SR leukemia. Also, the TGI is 5.82 µM with COLO 205 colon; above 100 µM in the test with HCT-15 colon; 90.9 µM in the test on ACHN renal; 96.5 µM with A498 renal; above 100 µM in the test on MCF7 breast; 40.4 µM with BT-549 breast.
For the compound `CC12CCC(C(=O)OC1=O)C2(C)C` (stereo unspecified), the TGI in the test with MALME-3M melanoma, in the test on HOP-62 NSCLC, in the test on DU-145 prostate, in the test with HL-60(TB) leukemia, in the test on M14 melanoma and with SF-295 CNS was above 100 µM each time. Besides, the TGI was above 100 µM in the test with MDA-MB-231 breast; above 100 µM in the test on SK-OV-3 ovarian; above 100 µM with TK-10 renal; above 100 µM in the test on SF-268 CNS; above 100 µM with CCRF-CEM leukemia; 64.3 µM in the test on SR leukemia. In addition, the TGI with COLO 205 colon, in the test on HCT-15 colon, with ACHN renal, with A498 renal and in the test on MCF7 breast was above 100 µM in each case.
For the compound `N#CC1Nc2ccccc2[C@@H](O)C1O` (stereo partly specified), the TGI with MALME-3M melanoma, in the test on HOP-62 NSCLC, in the test with DU-145 prostate, with HL-60(TB) leukemia, with M14 melanoma and with SF-295 CNS was above 100 µM in each case. The TGI in the test with MDA-MB-231 breast, in the test with EKVX NSCLC, in the test with SK-OV-3 ovarian, with TK-10 renal, with SF-268 CNS and in the test on CCRF-CEM leukemia was above 100 µM each time. Further, the TGI in the test on SR leukemia, in the test with COLO 205 colon, with HCT-15 colon, in the test on ACHN renal and in the test on MCF7 breast was above 100 µM each time.
Turning to `O=[N+]([O-])c1ccc(-n2nnc(C3=NCCCN3)c2-c2ccc(Cl)cc2)cc1`, the TGI in the test with MALME-3M melanoma, with HOP-62 NSCLC, in the test on HL-60(TB) leukemia, with M14 melanoma, in the test on SF-295 CNS and in the test on EKVX NSCLC was above 100 µM throughout. The TGI in the test on SK-OV-3 ovarian, with TK-10 renal, in the test on SF-268 CNS, in the test on CCRF-CEM leukemia, in the test with SR leukemia and in the test with COLO 205 colon was above 100 µM throughout. In addition, the TGI in the test on HCT-15 colon, with ACHN renal and with A498 renal was above 100 µM in each case.
For the compound `CCOC(=O)C(N=Nc1ccc(S(N)(=O)=O)cc1)C(C)=O` (stereo unspecified), the TGI with MALME-3M melanoma, in the test with HOP-62 NSCLC, with HL-60(TB) leukemia, in the test on M14 melanoma, with SF-295 CNS and with EKVX NSCLC was above 100 µM each time. In addition, the TGI in the test with SK-OV-3 ovarian, with TK-10 renal, with SF-268 CNS, in the test on CCRF-CEM leukemia, in the test on SR leukemia and in the test on COLO 205 colon was above 100 µM throughout. For the same compound, the TGI with HCT-15 colon, in the test with ACHN renal and with A498 renal was above 100 µM each time.
Consider `Clc1ccc(-c2c(C3=NCCN3)nnn2-c2ccc(Cl)cc2)cc1`, for which the TGI in the test with MALME-3M melanoma was 33.9 µM; in the test on HOP-62 NSCLC, above 100 µM; in the test on HL-60(TB) leukemia, 39.1 µM; in the test with M14 melanoma, 31.7 µM; in the test on SF-295 CNS it was 38.9 µM; with EKVX NSCLC, above 100 µM. In addition, the TGI was 93.3 µM in the test with SK-OV-3 ovarian; 69.7 µM in the test with TK-10 renal; above 100 µM with SF-268 CNS; 73 µM with CCRF-CEM leukemia; 35.1 µM with SR leukemia; 25.4 µM with COLO 205 colon. Besides, the TGI with HCT-15 colon was above 100 µM; with ACHN renal, above 100 µM; in the test with A498 renal, 38.4 µM.
As to `O=C(C[n+]1ccccc1)NNC(=O)/C(=C/c1ccc2c(c1)OCO2)NC(=O)c1ccccc1`, the TGI is above 100 µM with MALME-3M melanoma; above 100 µM with HOP-62 NSCLC; 64.8 µM in the test on HL-60(TB) leukemia; above 100 µM with M14 melanoma; above 100 µM in the test on SF-295 CNS; above 100 µM in the test on EKVX NSCLC. Also, the TGI in the test on SK-OV-3 ovarian is above 100 µM; in the test on TK-10 renal, above 100 µM; with SF-268 CNS it was above 100 µM; with CCRF-CEM leukemia it was 65 µM; in the test with SR leukemia it was 36.6 µM; with COLO 205 colon, above 65.5 µM. For the same compound, the TGI with HCT-15 colon is above 63.5 µM; in the test on ACHN renal it was above 100 µM; with A498 renal, above 100 µM.
With `CCOC(=O)C1=C(Nc2cccc(OC)c2)OCC1=O`, the TGI in the test on HOP-62 NSCLC, with DU-145 prostate, in the test on HL-60(TB) leukemia, in the test on M14 melanoma, in the test on SF-295 CNS and in the test with MDA-MB-231 breast was above 100 µM throughout. For the same compound, the TGI in the test with EKVX NSCLC, in the test with SK-OV-3 ovarian, in the test with TK-10 renal, with SF-268 CNS, with CCRF-CEM leukemia and in the test on SR leukemia was above 100 µM each time. The TGI in the test with COLO 205 colon, in the test with HCT-15 colon, in the test on ACHN renal, with A498 renal and in the test on MCF7 breast was above 100 µM in each case.
`O=C1c2cc3c(cc2CC12Cc1cc4c(cc1C2=O)CCC4)CCCC3` (stereo unspecified): the TGI in the test on MALME-3M melanoma, in the test with HOP-62 NSCLC, in the test on DU-145 prostate, with HL-60(TB) leukemia, in the test with M14 melanoma and in the test on SF-295 CNS was above 100 µM throughout. Further, the TGI in the test with MDA-MB-231 breast, in the test on EKVX NSCLC, with SK-OV-3 ovarian, in the test with TK-10 renal, in the test with SF-268 CNS and in the test on CCRF-CEM leukemia was above 100 µM throughout. Moreover, the TGI in the test with SR leukemia, in the test on HCT-15 colon, with ACHN renal, in the test with A498 renal and with MCF7 breast was above 100 µM each time.
